Experiments:
Assay in all cases: Test E preemergence herbicide test
Set-up in all cases: key: 0 = no effect, 100 = complete control
[1] = system: ryegrass, Italian; type: in vivo, Lolium multiflorum
From the text: (§1) Seeds of plant species selected from corn (Zea mays), soybean (Glycine max), velvetleaf (Abutilon theophrasti), lambsquarters (Chenopodium album), wild poinsettia (Euphorbia heterophylla), pigweed, palmer (palmer pigweed, Amaranthus palmeri), waterhemp (common waterhemp, Amaranthus rudis), surinam grass (Brachiaria decumbens), crabgrass, large (large crabgrass, Digitaria sanguinalis), crabgrass, Brazil (Brazilian crabgrass, Digitaria horizontalis), panicum, fall (fall panicum, Panicum dichotomiflorum), foxtail, giant (giant foxtail, Setaria faberii), foxtail, green (green foxtail, Setaria viridis), goosegrass (Eleusine indica), johnsongrass (Sorghum halepense), ragweed (common ragweed, Ambrosia elatior), barnyardgrass (Echinochloa crus-galli), sandbur (southern sandbur, Cenchrus echinatus), arrowleaf […] rhombifolia), ryegrass, Italian (Italian ryegrass, Lolium multiflorum), dayflower, VA (Virginia dayflower, Commelina virginica), field bindweed (Convolvulus arvensis), morningglory (Ipomoea coccinea), nightshade (eastern black nightshade, Solanum ptycanthum), kochia (Kochia scoparia), nutsedge, yellow (yellow nutsedge, Cyperus esculentus), cocklebur (common cocklebur, Xanthium strumarium), smartweed (ladysthumb smartweed, Polygonum Persicaria) and beggarticks (hairy beggarticks, Bidens pilosa), were planted into a silt loam soil and treated preemergence with test chemicals formulated in a non-phytotoxic solvent mixture which included a surfactant. Treated plants and controls were maintained in a greenhouse for 21 days, after which time all species were compared to controls and visually evaluated. Plant response ratings, summarized in Table E, are based on a scale of 0 to 100 where 0 is no effect and 100 is complete control. A dash (-) response means no test result.

[2] = system: velvetleaf; type: in vivo, Abutilon theophrasti
From the text: as §1

[3] = system: kochia; type: in vivo, Kochia scoparia
From the text: as §1

[4] = system: johnsongrass; type: in vivo, Sorghum halepense
From the text: as §1

Structure (SMILES)	Plant response rating, Ryegrass, Italian ([1]; 31 g ai/ha)	Plant response rating, Ryegrass, Italian ([1]; 62 g ai/ha)	Plant response rating, Ryegrass, Italian ([1]; 125 g ai/ha)	Plant response rating, Ryegrass, Italian ([1]; 250 g ai/ha)	Plant response rating, Velvetleaf ([2]; 31 g ai/ha)	Plant response rating, Velvetleaf ([2]; 62 g ai/ha)	Plant response rating, Velvetleaf ([2]; 125 g ai/ha)	Plant response rating, Velvetleaf ([2]; 250 g ai/ha)	Plant response rating, Kochia ([3]; 31 g ai/ha)	Plant response rating, Kochia ([3]; 62 g ai/ha)	Plant response rating, Kochia ([3]; 125 g ai/ha)	Plant response rating, Kochia ([3]; 250 g ai/ha)	Plant response rating, Johnsongrass ([4]; 31 g ai/ha)	Plant response rating, Johnsongrass ([4]; 62 g ai/ha)	Plant response rating, Johnsongrass ([4]; 125 g ai/ha)	Plant response rating, Johnsongrass ([4]; 250 g ai/ha)	Plant response rating, Ryegrass, Italian ([1]; 16 g ai/ha)	Plant response rating, Velvetleaf ([2]; 16 g ai/ha)	Plant response rating, Johnsongrass ([4]; 16 g ai/ha)	Plant response rating, Kochia ([3]; 16 g ai/ha)
O=C1NCC(c2ccc(C(F)(F)F)cc2)C1C(=O)Nc1ccc(F)c(F)c1F (stereo not drawn) [Compound 232]	0	10	20	40	0	0	20	80	90	95	98	98	0	0	0	25	–	–	–	–
O=C1NCC(c2ccc(F)cc2)C1C(=O)Nc1ccccc1F (racemic) [Compound 16]	0	0	0	30	0	0	0	0	0	–	0	0	0	0	0	0	0	0	0	–
O=C1NCC(c2cccc(Br)c2)C1C(=O)Nc1ccccc1F (stereo not drawn) [Compound 66]	0	0	0	0	0	0	0	0	0	0	0	0	0	0	0	0	0	0	0	0
